Data on 19 compounds can be found in ChEMBL document CHEMBL4411323 (Bioorg Med Chem, 2019).

For orientation: IC50 means the point on the concentration scale where inhibition reaches its midpoint.

The target in the assay is Serine/threonine-protein kinase B-raf (Homo sapiens, UniProt P15056, V600E). Description: Inhibition of human BRAF V600E mutant using myelin basic protein as substrate measured after 40 mins in presence of [gamma33P-ATP] by scintillation counting method.
Chain of Serine/threonine-protein kinase B-raf (P15056 2-766 V600E limits assumed): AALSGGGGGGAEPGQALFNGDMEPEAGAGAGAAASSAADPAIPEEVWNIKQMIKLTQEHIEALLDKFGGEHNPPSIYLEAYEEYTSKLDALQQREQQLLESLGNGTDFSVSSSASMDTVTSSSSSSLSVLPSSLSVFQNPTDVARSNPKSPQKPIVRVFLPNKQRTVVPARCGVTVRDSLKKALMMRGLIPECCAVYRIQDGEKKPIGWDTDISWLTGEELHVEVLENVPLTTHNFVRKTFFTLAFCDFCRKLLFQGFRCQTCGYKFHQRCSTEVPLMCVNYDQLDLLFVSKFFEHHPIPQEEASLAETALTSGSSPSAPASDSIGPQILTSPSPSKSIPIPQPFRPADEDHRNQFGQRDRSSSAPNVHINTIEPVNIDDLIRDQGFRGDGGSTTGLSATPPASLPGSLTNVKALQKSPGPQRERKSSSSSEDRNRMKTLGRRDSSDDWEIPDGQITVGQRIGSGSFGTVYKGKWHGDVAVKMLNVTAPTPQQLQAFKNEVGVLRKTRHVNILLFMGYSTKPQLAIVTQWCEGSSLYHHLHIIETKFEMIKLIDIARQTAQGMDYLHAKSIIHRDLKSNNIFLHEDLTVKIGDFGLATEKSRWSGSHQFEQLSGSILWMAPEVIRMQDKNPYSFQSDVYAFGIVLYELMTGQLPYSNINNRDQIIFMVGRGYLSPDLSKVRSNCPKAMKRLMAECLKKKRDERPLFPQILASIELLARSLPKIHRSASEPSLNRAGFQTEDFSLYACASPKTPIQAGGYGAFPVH
Regarding `COc1cc(Cl)cc(-c2nn(-c3cccc(NC(=O)Nc4ccc(Cl)c(Cl)c4)c3)cc2-c2ccncc2)c1`, the IC50 worked out at 251 nM.

With `COc1cc(Cl)cc(-c2nn(-c3cccc(NC(=O)Nc4ccccc4)c3)cc2-c2ccncc2)c1`, the IC50 came out at 488 nM.

On to `COc1cc(Cl)cc(-c2nn(-c3cccc(NC(=O)c4cccc(C(F)(F)F)c4)c3)cc2-c2ccncc2)c1`, for which the IC50 amounted to 160 nM.

Consider `O=C(Nc1cccc(-n2cc(-c3ccncc3)c(-c3cc(O)cc(Cl)c3)n2)c1)c1ccccc1`, for which the IC50 came out at 26 nM.

Regarding `O=C(Nc1cccc(-n2cc(-c3ccncc3)c(-c3cc(O)cc(Cl)c3)n2)c1)c1ccc(N2CCOCC2)c(C(F)(F)F)c1`, the IC50 amounted to 14 nM.

For the compound `COc1cc(Cl)cc(-c2nn(-c3cccc(NC(=O)c4ccccc4)c3)cc2-c2ccncc2)c1`, the IC50 was determined as 3690 nM.

With `COc1cc(Cl)cc(-c2nn(-c3cccc(NC(=O)c4ccc(N5CCOCC5)c(C(F)(F)F)c4)c3)cc2-c2ccncc2)c1`, the IC50 was determined as 348 nM.

For the compound `COc1cc(Cl)cc(-c2nn(-c3cccc(NC(=O)c4ccc(Cl)c(Cl)c4)c3)cc2-c2ccncc2)c1`, the IC50 was 87200 nM.

For `O=C(Nc1ccccc1)Nc1cccc(-n2cc(-c3ccncc3)c(-c3cc(O)cc(Cl)c3)n2)c1`, the IC50 turned out to be 919 nM.

On to `COc1cc(Cl)cc(-c2nn(-c3cccc(NC(=O)c4cc(C(F)(F)F)cc(C(F)(F)F)c4)c3)cc2-c2ccncc2)c1`, for which the IC50 came out at 7410 nM.

Consider `O=C(Nc1cccc(-n2cc(-c3ccncc3)c(-c3cc(O)cc(Cl)c3)n2)c1)c1cc(C(F)(F)F)cc(C(F)(F)F)c1`, for which the IC50 was determined as 212 nM.

As to `O=C(Nc1cccc(-n2cc(-c3ccncc3)c(-c3cc(O)cc(Cl)c3)n2)c1)Nc1cc(C(F)(F)F)cc(C(F)(F)F)c1`, the IC50 came out at 2110 nM.

With `O=C(Nc1cccc(-n2cc(-c3ccncc3)c(-c3cc(O)cc(Cl)c3)n2)c1)Nc1ccc(Cl)c(Cl)c1`, the IC50 was 45 nM.

As to `O=C(Nc1cccc(-n2cc(-c3ccncc3)c(-c3cc(O)cc(Cl)c3)n2)c1)Nc1ccc(Cl)c(C(F)(F)F)c1`, the IC50 amounted to 7 nM.

Regarding `COc1cc(Cl)cc(-c2nn(-c3cccc(NC(=O)Nc4ccc(Cl)c(C(F)(F)F)c4)c3)cc2-c2ccncc2)c1`, the IC50 was determined as 189 nM.

Consider `O=C(Nc1cccc(-n2cc(-c3ccncc3)c(-c3cc(O)cc(Cl)c3)n2)c1)c1ccc(Cl)c(Cl)c1`, for which the IC50 was 47 nM.

For the compound `COc1cc(Cl)cc(-c2nn(-c3cccc(NC(=O)Nc4cccc(C(F)(F)F)c4)c3)cc2-c2ccncc2)c1`, the IC50 is 475 nM.

Regarding `O=C(Nc1cccc(-n2cc(-c3ccncc3)c(-c3cc(O)cc(Cl)c3)n2)c1)c1cccc(C(F)(F)F)c1`, the IC50 came to 38 nM.

On to `O=C(Nc1cccc(-n2cc(-c3ccncc3)c(-c3cc(O)cc(Cl)c3)n2)c1)Nc1cccc(C(F)(F)F)c1`, for which the half-maximal inhibitory concentration (IC50) stood at 30 nM.
